Test results published in patent publication US9738902B2, “Modified PYR/PYL receptors activated by ligands” (priority 2013, dated 2017).

Key:
Assay type in all cases: cell-based
PYR1 K59R A160G = molecular target: T1, PYR1 K59R A160G (Arabidopsis thaliana, UniProt O49686, A160G/K59R); experiment: Y2H Pocket Library Screen (HAB1, X-gal)
T1 construct: expressed in transfected cells; host or cells: S. cerevisiae Y190
Method: (§1) The set of 475 mutant plasmids were individually transformed into the Y190 yeast two hybrid reporter strain co-transformed with pACT-HAB1, as previously described (Park et al., 2009). The yeast strains generated were arrayed into 96-well plates yielding what we refer to as the “pocket library”. The pocket library strains were spotted onto agar plates containing selective synthetic dextrose (minus Leu & Trp) medium that was supplemented with a single test compound at 100 μM. The pocket library strains were separately tested for responsiveness to the following compounds: dichlobenil, benzothiadiazole, mandipropamid, fludioxonil, and benoxacor. After incubating test plates at 30° C. for two days, colonies were chloroform lysed and stained to reveal β-galactosidase expression levels, using previously described methods (Park et al., 2009). Mutants displaying responsiveness to the test compound, if present, were identified by virtue of X-gal staining and then subjected to subsequent optimization efforts. Using this approach we identified mutations that conferred detectable sensitivity to the compounds tested (see entries labeled “Pocket Library Screens” in Table 1).

PYR1 K59R A89C = molecular target: T2, PYR1 K59R A89C (Arabidopsis thaliana, UniProt O49686, A89C/K59R); experiment: Y2H Pocket Library Screen (HAB1, X-gal)
T2 construct: expressed in transfected cells; host or cells: S. cerevisiae Y190 yeast two-hybrid reporter strain
Method: as §1

PYR1 K59R E141K = molecular target: T3, PYR1 K59R E141K (Arabidopsis thaliana, UniProt O49686, E141K/K59R); experiment: Y2H Pocket Library Screen (HAB1, X-gal)
T3 construct: expressed in transfected cells; host or cells: S. cerevisiae Y190 two-hybrid reporter strain
Method: as §1

PYR1 K59R E141Y = molecular target: T4, PYR1 K59R E141Y (Arabidopsis thaliana, UniProt O49686, E141Y/K59R); experiment: Y2H Pocket Library Screen (HAB1, X-gal)
T4 construct: expressed in transfected cells; host or cells: S. cerevisiae Y190 two-hybrid reporter strain
Method: as §1

PYR1 K59R F159A = molecular target: T5, PYR1 K59R F159A (Arabidopsis thaliana, UniProt O49686, F159A/K59R); experiment: Y2H Pocket Library Screen (HAB1, X-gal)
T5 construct: expressed in transfected cells; host or cells: S. cerevisiae Y190 two-hybrid reporter strain
Method: as §1

PYR1 K59R F159C = molecular target: T6, PYR1 K59R F159C (Arabidopsis thaliana, UniProt O49686, F159C/K59R); experiment: Y2H Pocket Library Screen (HAB1, X-gal)
T6 construct: expressed in transfected cells; host or cells: S. cerevisiae Y190 two-hybrid reporter strain
Method: as §1

PYR1 K59R F159I = molecular target: T7, PYR1 K59R F159I (Arabidopsis thaliana, UniProt O49686, F159I/K59R); experiment: Y2H Pocket Library Screen (HAB1, X-gal)
T7 construct: expressed in transfected cells; host or cells: S. cerevisiae Y190 two-hybrid reporter strain
Method: as §1

PYR1 K59R F159L = molecular target: T8, PYR1 K59R F159L (Arabidopsis thaliana, UniProt O49686, F159L/K59R); experiment: Y2H Pocket Library Screen (HAB1, X-gal)
T8 construct: expressed in transfected cells; host or cells: S. cerevisiae Y190
Method: as §1

PYR1 K59R F159M = molecular target: T9, PYR1 K59R F159M (Arabidopsis thaliana, UniProt O49686, F159M/K59R); experiment: Y2H Pocket Library Screen (HAB1, X-gal)
T9 construct: expressed in transfected cells; host or cells: S. cerevisiae Y190
Method: as §1

PYR1 K59R F159T = molecular target: T10, PYR1 K59R F159T (Arabidopsis thaliana, UniProt O49686, F159T/K59R); experiment: Y2H Pocket Library Screen (HAB1, X-gal)
T10 construct: expressed in transfected cells; host or cells: S. cerevisiae Y190
Method: as §1

PYR1 K59R F159V = molecular target: T11, PYR1 K59R F159V (Arabidopsis thaliana, UniProt O49686, F159V/K59R); experiment: Y2H Pocket Library Screen (HAB1, X-gal)
T11 construct: expressed in transfected cells; host or cells: S. cerevisiae Y190
Method: as §1

PYR1 K59R L117C = molecular target: T12, PYR1 K59R L117C (Arabidopsis thaliana, UniProt O49686, K59R/L117C); experiment: Y2H Pocket Library Screen (HAB1, X-gal)
T12 construct: expressed in transfected cells; host or cells: S. cerevisiae Y190 two-hybrid reporter strain
Method: as §1

PYR1 K59R M158C = molecular target: T13, PYR1 K59R M158C (Arabidopsis thaliana, UniProt O49686, K59R/M158C); experiment: Y2H Pocket Library Screen (HAB1, X-gal)
T13 construct: expressed in transfected cells; host or cells: S. cerevisiae Y190 two-hybrid reporter strain
Method: as §1

PYR1 K59R M158I = molecular target: T14, PYR1 K59R M158I (Arabidopsis thaliana, UniProt O49686, K59R/M158I); experiment: Y2H Pocket Library Screen (HAB1, X-gal)
T14 construct: expressed in transfected cells; host or cells: S. cerevisiae Y190 two-hybrid reporter strain
Method: as §1

PYR1 K59R M158T = molecular target: T15, PYR1 K59R M158T (Arabidopsis thaliana, UniProt O49686, K59R/M158T); experiment: Y2H Pocket Library Screen (HAB1, X-gal)
T15 construct: expressed in transfected cells; host or cells: S. cerevisiae Y190 two-hybrid reporter strain
Method: as §1

PYR1 K59R M158V = molecular target: T16, PYR1 K59R M158V (Arabidopsis thaliana, UniProt O49686, K59R/M158V); experiment: Y2H Pocket Library Screen (HAB1, X-gal)
T16 construct: expressed in transfected cells; host or cells: S. cerevisiae Y190 two-hybrid reporter strain
Method: as §1

PYR1 K59R T162K = molecular target: T17, PYR1 K59R T162K (Arabidopsis thaliana, UniProt O49686, K59R/T162K); experiment: Y2H Pocket Library Screen (HAB1, X-gal)
T17 construct: expressed in transfected cells; host or cells: S. cerevisiae Y190
Method: as §1

PYR1 K59R T162W = molecular target: T18, PYR1 K59R T162W (Arabidopsis thaliana, UniProt O49686, K59R/T162W); experiment: Y2H Pocket Library Screen (HAB1, X-gal)
T18 construct: expressed in transfected cells; host or cells: S. cerevisiae Y190
Method: as §1

PYR1 K59R T162Y = molecular target: T19, PYR1 K59R T162Y (Arabidopsis thaliana, UniProt O49686, K59R/T162Y); experiment: Y2H Pocket Library Screen (HAB1, X-gal)
T19 construct: expressed in transfected cells; host or cells: S. cerevisiae Y190
Method: as §1

PYR1 K59R V164K = molecular target: T20, PYR1 K59R V164K (Arabidopsis thaliana, UniProt O49686, K59R/V164K); experiment: Y2H Pocket Library Screen (HAB1, X-gal)
T20 construct: expressed in transfected cells; host or cells: S. cerevisiae Y190
Method: as §1

PYR1 K59R V164Y = molecular target: T21, PYR1 K59R V164Y (Arabidopsis thaliana, UniProt O49686, K59R/V164Y); experiment: Y2H Pocket Library Screen (HAB1, X-gal)
T21 construct: expressed in transfected cells; host or cells: S. cerevisiae Y190 two-hybrid reporter strain
Method: as §1

PYR1 K59R V81I = molecular target: T22, PYR1 K59R V81I (Arabidopsis thaliana, UniProt O49686, K59R/V81I); experiment: Y2H Pocket Library Screen (HAB1, X-gal)
T22 construct: expressed in transfected cells; host or cells: S. cerevisiae Y190 yeast two-hybrid reporter strain
Method: as §1

PYR1 K59R V83L = molecular target: T23, PYR1 K59R V83L (Arabidopsis thaliana, UniProt O49686, K59R/V83L); experiment: Y2H Pocket Library Screen (HAB1, X-gal)
T23 construct: expressed in transfected cells; host or cells: S. cerevisiae Y190 yeast two-hybrid reporter strain
Method: as §1

PYR1 K59R A160G L117C = molecular target: T24, PYR1 K59R A160G L117C (Arabidopsis thaliana, UniProt O49686, A160G/K59R/L117C); experiment: Y2H Combinatorial Mutagenesis Screen I (HAB1, X-gal)
T24 construct: expressed in transfected cells; host or cells: S. cerevisiae Y190 two-hybrid reporter strain
From the text: (§2) This screening approach yielded mutants at ligand contacting residues that alter sensitivity to specific ligands. We reasoned that receptor sensitivity could be improved by systematically constructing combinations of the best mutant variants identified in the first round of screening. To test this, we constructed mutant combinations using the strongest mutations identified for mandipropamid, benzothiadiazole, benoxacor or fludioxonil sensitivity. The mutations selected for combinatorial mutagenesis are listed in bold type in Table 1; The mutant combinations were constructed using the QuickChange Lightning Multi Site-Directed PCR Mutagenesis kit (Agilent, USA) using pBD-PYR1^K59R template DNA and mutagenic primers, essentially as previously described (Mosquna et al., 2011). The mutant combinations were sequence validated, introduced into the pACT-HAB1 Y190 reporter strain and then tested for responsiveness to a range of compound concentrations (100, 50, 25, 10, 1, 0.2, 0.1 or 0 μM each test compound). These efforts yielded double mutant receptor variants with improved sensitivity for the 4 compound/receptor pairs examined (see entries labeled “Combinatorial Mutagenesis Screen I” in Table 1).

PYR1 K59R A160G V164K = molecular target: T25, PYR1 K59R A160G V164K (Arabidopsis thaliana, UniProt O49686, A160G/K59R/V164K); experiment: as above
T25 construct: expressed in transfected cells; host or cells: S. cerevisiae Y190 two-hybrid reporter strain
From the text: as §2

PYR1 K59R A89C A160G = molecular target: T26, PYR1 K59R A89C A160G (Arabidopsis thaliana, UniProt O49686, A160G/A89C/K59R); experiment: as above
T26 construct: expressed in transfected cells; host or cells: S. cerevisiae Y190 two-hybrid reporter strain
From the text: as §2

PYR1 K59R A89C E141Y = molecular target: T27, PYR1 K59R A89C E141Y (Arabidopsis thaliana, UniProt O49686, A89C/E141Y/K59R); experiment: as above
T27 construct: expressed in transfected cells; host or cells: S. cerevisiae Y190 two-hybrid reporter strain
From the text: as §2

PYR1 K59R A89C L117C = molecular target: T28, PYR1 K59R A89C L117C (Arabidopsis thaliana, UniProt O49686, A89C/K59R/L117C); experiment: as above
T28 construct: expressed in transfected cells; host or cells: S. cerevisiae Y190 two-hybrid reporter strain
From the text: as §2

PYR1 K59R A89C V164K = molecular target: T29, PYR1 K59R A89C V164K (Arabidopsis thaliana, UniProt O49686, A89C/K59R/V164K); experiment: as above
T29 construct: expressed in transfected cells; host or cells: S. cerevisiae Y190 two-hybrid reporter strain
From the text: as §2

PYR1 K59R E141Y A160G = molecular target: T30, PYR1 K59R E141Y A160G (Arabidopsis thaliana, UniProt O49686, A160G/E141Y/K59R); experiment: as above
T30 construct: expressed in transfected cells; host or cells: S. cerevisiae Y190 two-hybrid reporter strain
From the text: as §2

PYR1 K59R L117C V164K = molecular target: T31, PYR1 K59R L117C V164K (Arabidopsis thaliana, UniProt O49686, K59R/L117C/V164K); experiment: as above
T31 construct: expressed in transfected cells; host or cells: S. cerevisiae Y190 two-hybrid reporter strain
From the text: as §2

T11 sequence (O49686 whole entry K59R/F159V): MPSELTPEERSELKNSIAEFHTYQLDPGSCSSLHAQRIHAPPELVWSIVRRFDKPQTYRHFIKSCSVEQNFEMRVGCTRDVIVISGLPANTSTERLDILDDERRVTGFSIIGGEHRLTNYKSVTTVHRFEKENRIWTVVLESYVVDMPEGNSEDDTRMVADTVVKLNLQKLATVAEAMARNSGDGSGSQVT
T11 sequence (Q9CAJ0 23-511, further chain): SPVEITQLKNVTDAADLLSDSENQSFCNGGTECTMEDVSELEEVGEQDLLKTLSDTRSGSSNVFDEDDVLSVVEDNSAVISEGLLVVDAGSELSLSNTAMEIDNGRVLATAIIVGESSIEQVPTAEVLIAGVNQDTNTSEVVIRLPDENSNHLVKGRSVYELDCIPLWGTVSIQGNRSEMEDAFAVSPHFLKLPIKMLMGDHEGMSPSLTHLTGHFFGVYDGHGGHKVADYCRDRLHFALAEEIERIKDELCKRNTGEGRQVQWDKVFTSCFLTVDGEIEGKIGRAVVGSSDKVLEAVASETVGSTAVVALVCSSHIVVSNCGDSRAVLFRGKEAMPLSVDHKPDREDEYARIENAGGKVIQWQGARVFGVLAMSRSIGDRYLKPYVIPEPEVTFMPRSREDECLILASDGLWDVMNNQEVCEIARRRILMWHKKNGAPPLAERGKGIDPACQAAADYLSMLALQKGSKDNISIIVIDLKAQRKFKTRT
T8 sequence (O49686 whole entry K59R/F159L): as the sequence (O49686 whole entry K59R/F159V) above, with V159L counted along it
T8 sequence (Q9CAJ0 23-511, further chain): as the sequence (Q9CAJ0 23-511, further chain) above
T23 sequence (O49686 whole entry K59R/V83L): as the sequence (O49686 whole entry K59R/F159V) above, with V83L, V159F counted along it
T23 sequence (Q9CAJ0 23-511, further chain): as the sequence (Q9CAJ0 23-511, further chain) above
T13 sequence (O49686 whole entry K59R/M158C): as the sequence (O49686 whole entry K59R/F159V) above, with M158C, V159F counted along it
T13 sequence (Q9CAJ0 23-511, further chain): as the sequence (Q9CAJ0 23-511, further chain) above
T18 sequence (O49686 whole entry K59R/T162W): as the sequence (O49686 whole entry K59R/F159V) above, with V159F, T162W counted along it
T18 sequence (Q9CAJ0 23-511, further chain): as the sequence (Q9CAJ0 23-511, further chain) above
T7 sequence (O49686 whole entry K59R/F159I): as the sequence (O49686 whole entry K59R/F159V) above, with V159I counted along it
T7 sequence (Q9CAJ0 23-511, further chain): as the sequence (Q9CAJ0 23-511, further chain) above
T31 sequence (O49686 whole entry K59R/L117C/V164K): as the sequence (O49686 whole entry K59R/F159V) above, with L117C, V159F, V164K counted along it
T31 sequence (Q9CAJ0 23-511, stated change not applied, further chain): as the sequence (Q9CAJ0 23-511, further chain) above

c1ccc2snnc2c1 [Benzothiadiazole, benzothiadiazole]
Threshold (PYR1 K59R A160G): 100 µM | Threshold (PYR1 K59R A89C): 100 µM | Threshold (PYR1 K59R E141K): 100 µM | Threshold (PYR1 K59R E141Y): 100 µM | Threshold (PYR1 K59R F159A): 100 µM | Threshold (PYR1 K59R F159C): 100 µM | Threshold (PYR1 K59R F159I): 100 µM | Threshold (PYR1 K59R F159L): 100 µM | Threshold (PYR1 K59R F159M): 100 µM | Threshold (PYR1 K59R F159T): 100 µM | Threshold (PYR1 K59R F159V): 100 µM | Threshold (PYR1 K59R L117C): 100 µM | Threshold (PYR1 K59R M158C): 100 µM | Threshold (PYR1 K59R M158I): 100 µM | Threshold (PYR1 K59R M158T): 100 µM | Threshold (PYR1 K59R M158V): 100 µM | Threshold (PYR1 K59R T162K): 100 µM | Threshold (PYR1 K59R T162W): 100 µM | Threshold (PYR1 K59R T162Y): 100 µM | Threshold (PYR1 K59R V164K): 100 µM | Threshold (PYR1 K59R V164Y): 100 µM | Threshold (PYR1 K59R V81I): 100 µM | Threshold (PYR1 K59R V83L): 100 µM | Threshold (PYR1 K59R A160G L117C): 25 µM | Threshold (PYR1 K59R A160G V164K): 5 µM | Threshold (PYR1 K59R A89C A160G): 5 µM | Threshold (PYR1 K59R A89C E141Y): 0.2 µM | Threshold (PYR1 K59R A89C L117C): 25 µM | Threshold (PYR1 K59R A89C V164K): 0.2 µM | Threshold (PYR1 K59R E141Y A160G): 5 µM | Threshold (PYR1 K59R L117C V164K): 100 µM
